US11332450B2, “Isoxazole as FXR receptor agonists” (Bar Pharmaceuticals Societa' A Responsabilita' Limitata, priority 2018, dated 2022)

What was measured:
SHP mRNA = SHP mRNA expression in HepG2 cells (RT-PCR); format: cell-based, human
Procedure: RNA isolation and RT-PCR. HepG2 cells were plated at the density of 1×10^6 cells/flask in T25 flask. […] Total RNA was isolated from HepG2 cells or liver tissue using the TRIzol reagent according to the manufacturer's specifications (Invitrogen). One microgram of purified RNA was treated with DNase-I and reverse transcribed with QuantiTect Reverse Transcription Kit (Qiagen). For Real Time PCR, 10 ng template was dissolved in 25 μL containing 200 nmol/L of each primer and 12.5 μL of 2×SYBR FAST Universal ready mix (Invitrogen). All reactions were performed in triplicate, and the thermal cycling conditions were as follows: 2 min at 95° C., followed by 40 cycles of 95° C. for 20 s and 60° C. for 30 s in StepOnePlus (Applied Biosystems). The relative mRNA expression was calculated in accord to the Ct method. Forward and reverse primer sequences were the following: human GAPDH: [NT] (SEQ ID: 1) and [NT] (SEQ ID: 2); human SHP: [NT] (SEQ ID: 3) and [NT] (SEQ ID: 4); mouse GAPDH, [NT] (SEQ ID: 5) and [NT] (SEQ ID: 6); mouse SHP [NT] (SEQ ID: 7) and [NT] (SEQ ID: 8); mouse FXR: [NT] (SEQ ID: 9) and [NT] (SEQ ID: 10); mouse BSEP: [NT] (SEQ ID: 11) and [NT] (SEQ ID: 12).

liver BSEP mRNA = assay: Liver BSEP mRNA expression in mice after administration of compound; format: in vivo, mouse; conditions: administered per os, 10 mg/kg daily for 3 days
Procedure: (§1) Total RNA was isolated from HepG2 cells or liver tissue using the TRIzol reagent according to the manufacturer's specifications (Invitrogen). One microgram of purified RNA was treated with DNase-I and reverse transcribed with QuantiTect Reverse Transcription Kit (Qiagen). For Real Time PCR, 10 ng template was dissolved in 25 μL containing 200 nmol/L of each primer and 12.5 μL of 2×SYBR FAST Universal ready mix (Invitrogen). All reactions were performed in triplicate, and the thermal cycling conditions were as follows: 2 min at 95° C., followed by 40 cycles of 95° C. for 20 s and 60° C. for 30 s in StepOnePlus (Applied Biosystems). The relative mRNA expression was calculated in accord to the Ct method. Forward and reverse primer sequences were the following: human GAPDH: [NT] (SEQ ID: 1) and [NT] (SEQ ID: 2); human SHP: [NT] (SEQ ID: 3) and [NT] (SEQ ID: 4); mouse GAPDH, [NT] (SEQ ID: 5) and [NT] (SEQ ID: 6); mouse SHP [NT] (SEQ ID: 7) and [NT] (SEQ ID: 8); mouse FXR: [NT] (SEQ ID: 9) and [NT] (SEQ ID: 10); mouse BSEP: [NT] (SEQ ID: 11) and [NT] (SEQ ID: 12). C57BL/6N male mice were from The Jackson's Laboratory. […] The general health of the animals was monitored daily by the Veterinarian in the animal facility. […]

liver SHP mRNA = assay: Liver SHP mRNA expression in mice after administration of compound; format: in vivo, mouse; conditions: administered per os, 10 mg/kg daily for 3 days
Procedure: as §1

[1] = Microsomal stability in mouse liver microsomes; format: in vitro ADME; conditions: male CD-1 mouse liver microsomes, 1 μM compound, 37° C.
Procedure: Male mouse (CD-1) liver microsomes (Sigma-Aldrich) were used. All incubations were performed in duplicate in a shaking water bath at 37° C. […] Aliquots were removed at 0, 5, 10, 20, 30, and 40 min after microsome addition and the reaction was stopped by adding 200 μL of ice-cold acetonitrile. After 2 h, the samples were centrifuged for 10 min at 10000 rpm, and the supernatants were transferred in matrix tubes for LC-MS/MS analysis. Propranolol, known as a high hepatic clearance drug in rodents, was used as a quality-control compound for the microsomal incubations. The slope of the linear regression of the curve obtained reporting the natural logarithm of compound area versus incubation time (−k) was used in the conversion to in vitro t1/2 values by t1/2=−ln(2)/k. In vitro intrinsic clearance (CLint expressed as μL/min/mg) was calculated according to the following formula: Clint=volume of reaction (μL)/t1/2 (min)/protein of liver microsomes (mg).

[2] = ascribed to the stilbene moiety; cited from earlier work
[3] = rats, oral administration; cited from earlier work

| SMILES | SHP mRNA expression induction (SHP mRNA; 5 μM concentration, 18 h) [times] | liver BSEP mRNA expression (liver BSEP mRNA) | liver SHP mRNA expression (liver SHP mRNA) | Clint [1] [µL/min/mg] | t1/2 [1] [min] | SHP mRNA expression induction (SHP mRNA; reference compound at 10 μM concentration) [times] | UV light stability [2] | intestinal absorption [3] [%] | terminal half-life [3] |
| --- | --- | --- | --- | --- | --- | --- | --- | --- | --- |
| CC(C)c1onc(-c2c(Cl)cccc2Cl)c1COc1ccc(COc2ccc(C(=O)O)cc2)cc1 [BAR2109, 4-((4-((3-(2,6-dichlorophenyl)-5-isopropylisoxazol-4-yl)methoxy)benzyl)oxy)benzoic Acid] | 6.8 | inducing | inducing |  |  |  |  |  |  |
| CC(C)c1onc(-c2c(Cl)cccc2Cl)c1COc1ccc(COc2cccc(C(=O)O)c2)cc1 [BAR2123, 3-((4-((3-(2,6-dichlorophenyl)-5-isopropylisoxazol-4-yl)methoxy)benzyl)oxy)benzoic Acid] | 6.2 |  |  |  |  |  |  |  |  |
| CC(C)c1onc(-c2c(Cl)cccc2Cl)c1COc1ccc(/C=C/c2cccc(C(=O)O)c2)c(Cl)c1 [GW4064] |  |  |  | 56 | 41 | 4.2 | UV light instability | < 10 | short |
